Measurements reported in patent US12157740B2, “Triazolopyridines and triazolopyrimidines that lower stress-induced p-tau” (NantNeuro, LLC, priority 2015, dated 2024).

Tests used:
[1] = in vivo pharmacokinetics, plasma and brain levels; parameters: species or system mouse; conditions: for brain levels after subcutaneous injection: peak for J14 and J19; for time of peak levels after SQ injection: plasma and brain (J19: brain); for levels after oral delivery compared with injection: J32: plasma and brain
[2] = system: tau and p-tau in SH-Sy5Y cells; test: screens for tau and p-tau levels in SH-Sy5Y cells (no CRF stated); format: cell-based; conditions: for tau and/or p-tau lowering effect compared with J03: SH-Sy5Y screens (J04: p-tau only, FIG. 19; J17: FIGS. 21A-B; J14: FIG. 28A)
Protocol: As described below, in vitro studies were performed using SHSY-5Y cells. These cells are a useful neurological model that differentiate into cells with morphological and biochemical characteristics of mature neurons including mature isoforms of tau. […]

[3] = system: mice; test: J14 daily SQ injection for 12 days in mice; format: in vivo, mouse
Protocol: (§1) Animal experiments were performed using J20 mice. The J20 mouse is a model of for Alzheimer's disease. This model overexpresses human APP with two mutations linked to familial Alzheimer's disease (the APP KM670/671NL (Swedish) and 5APP V717F (Indiana) mutations).
FIGS. 31A-31F depict total sAPPα, Aβ1-40, and Aβ1-42, and tau, p-tau, and p-tau/tau ratio, respectively, after daily SQ injection at 10 mkd does for 12 days.

[4] = system: tau and phospho-tau in SHSY-5Y cells; test: CRF-induced tau, p-tau and sAPPα changes in SHSY-5Y cells; format: cell-based; conditions: for p-tau/tau ratio: FIG. 32C
[5] = system: J20 mice; test: J17 pilot study in J20 mice (oral, 28 days); format: in vivo, mouse
Protocol: as §1
In a J17 pilot study (#1 pilot study) male and female J20 mice were housed singly and treated with J17 at 10 rnkd by oral delivery for 28 days.

[6] = system: tau and p-tau; test: effect of J03 and J19 on tau and p-tau (FIG. 39E-39F, system not given)
Description: JI9 decreased tau and both J03 and JI9 decreased p-tau (FIG. 39E). Therefore, while the p-tau/tau ratio looks unchanged for J19 FIG. 39F. This is due to the tau decrease and not due to a lack of effect.

[7] = primary screen in SH-Sy5Y cells, FIG. 19
[8] = CRF-1 at 0 nM, 50 nM and 100 nM, FIGS. 29B-29C
[9] = CRF-1 at 100 nM for 3 days, compound at 20 nM, FIG. 29A
[10] = compared to a control J03, FIGS. 33A-33B
[11] = 10 mg/kg intraperitoneal, FIG. 33D

Structure (SMILES): CCC(COC)n1nnc2c(Nc3ccc(OC)cc3C)nc(C)nc21 (centres unmarked) [J04]
- clearance after injection compared with oral delivery ([1]; SQ injection, FIG. 20A): slower
- brain levels after SQ injection ([1]; dose not given, FIG. 20A): ~55 ng/g
- brain levels after oral delivery ([1]; dose not given, FIG. 20A): ~55 ng/g
- tau and/or p-tau lowering effect compared with J03 [2]: same level as J03
- p-tau [2, 7]: did lower
- tau [2, 7]: did not lower

Structure (SMILES): CCC(COC)n1nnc2c(N(C)c3c(C)cc(C)cc3C)nc(C)nc21 (centres unmarked) [J14]
- brain/plasma ratio after SQ injection ([1]; 10 mg/kg SQ): 0.6
- plasma level at peak after subcutaneous injection ([1]; 10 mg/kg SQ, FIG. 30A): 798 ng/mL
- brain levels after subcutaneous injection ([1]; 10 mg/kg SQ): 485 ng/g
- time of peak levels after SQ injection ([1]; 10 mg/kg SQ): 2 h
- time of peak brain levels after oral feeding ([1]; 10 mg/kg oral, FIG. 30B): 2 h
- brain levels after oral delivery ([1]; 10 mg/kg oral, peak for J14): 13.3 ng/g
- brain:plasma ratio after oral delivery ([1]; oral feeding at 10 mg/kg): 1.33
- tau and/or p-tau lowering effect compared with J03 [2]: more than J03
- p-tau ([2]; screen of FIG. 28A): decreased
- total tau ([2]; screen of FIG. 28A): decreased
- p-tau ([2]; screen of FIG. 28B): neither J14 nor J03 decreased
- total tau ([2]; screen of FIG. 28B): neither J14 nor J03 decreased
- tau protein ([3]; B254 mice (Swedish, Indiana and D664A APP mutations), trend for both vehicle and J14 treated, FIGS. 31D-31F): trend for lower levels
- Aβ1-40 ([3]; daily SQ injection 10 mkd for 12 days, FIG. 31B): trend toward decrease
- Aβ1-42 ([3]; daily SQ injection 10 mkd for 12 days, FIG. 31C): trend toward decrease
- sAPPα ([3]; daily SQ injection 10 mkd for 12 days, compared to vehicle treated mice, FIG. 31A): decrease
- p-tau [4, 8]: decreasing
- p-tau and tau decrease compared with J03 [4, 8]: more than J03
- tau [4, 8]: decreasing
- p-tau [4, 9]: decreased
- total tau [4, 9]: decreased

Structure (SMILES): CCC(COC)Nc1nc(C)nc2c1nnn2-c1ccc(OC)cc1C (centres unmarked) [J17]
- Aβ1-40/Aβ1-42 ratio ([5]; FIG. 26C): no significant difference
- Aβ1-42 ([5]; data from all mice, FIG. 26A): no significant differences
- activity ([5]; male and female J20 mice housed singly, oral 28 days, not significant, FIG. 24A): lowered
- p-tau ([5]; male mice, FIG. 27B): slightly lower
- p-tau/tau ratio ([5]; male mice, FIG. 27C): lower still
- Aβ1-42 ([5]; male mice, low outlier from one sibling pair eliminated, FIG. 26B): significant reduction
- Tau ([5]; males, FIG. 27A): increased
- sAPPβ ([5]; oral 28 days, FIG. 25B): decrease
- novel object preference, overall ([5]; oral 28 days, all mice, FIG. 24B): increase with J17 was significant
- sAPPα ([5]; oral 28 days, both genders, FIG. 25A): increase with J03 but not J17
- ratio sAPPα/sAPPβ ([5]; oral 28 days, males, FIG. 25C): greater
- plasma levels after subcutaneous injection ([1]; 10 mg/kg SQ, FIG. 23A): ~4000 ng/m
- brain levels after subcutaneous injection ([1]; 10 mg/kg SQ): ~400 ng/g
- plasma levels relative to brain levels after oral delivery ([1]; 10 mg/kg oral, FIG. 23B): ~10 fold
- brain levels after oral delivery ([1]; 10 mg/kg oral, peak for J14): ~50 ng/g
- tau ([2]; SH-Sy5Y cells, FIG. 21A): significantly lower
- p-tau ([2]; SH-Sy5Y cells, FIG. 21B): significantly lower
- tau and/or p-tau lowering effect compared with J03 [2]: greater
- tau after exposure to CRF ([4]; FIG. 21D): decreased
- p-tau after exposure to CRF ([4]; FIG. 21E): decreased
- p-tau with increasing concentrations of CRF ([4]; seen at all concentrations of CRF tested, excluding 0, FIG. 22C): decrease
- sAPPα with increasing concentrations of CRF ([4]; seen without CRF and at 50 nM, not at other concentrations, FIG. 22A): decrease
- tau with increasing concentrations of CRF ([4]; seen without CRF and at 50 and 100 nM, FIG. 22B): decrease
- sAPPα after exposure to CRF ([4]; versus control, FIG. 21C): the same for control as for J17

Structure (SMILES): CCC(COC)Nc1nc(C)nc2c1nnn2-c1ccc(Cl)cc1C (centres unmarked) [J19, 3-(4-Chloro-2-methylphenyl)-N-(1-methoxybutan-2-yl)-5-methyl-3H-[1,2,3]triazolo[4,5-d]pyrimidin-7-amine]
- brain levels after subcutaneous injection ([1]; 10 mg/kg SQ): ~190 ng/g
- time of peak levels after SQ injection ([1]; 10 mg/kg SQ): 4 h
- levels after oral delivery compared with injection ([1]; 10 mg/kg oral): much lower
- persistence of brain levels after SQ injection ([1]; 10 mkd SQ, FIG. 32G): relatively high until 8 hours
- p-tau/tau ratio ([4]; at 50 and 100 nM CRF): highly significantly decreased
- tau ([4]; in the absence of CRF and in the presence of 100 nM CRF, FIG. 32A): trend to decrease
- p-tau/tau ratio ([4]; in the absence of CRF): decreased
- p-tau ([4]; in the presence and absence of CRF, FIG. 32B): significantly reduced
- sAPPα ([4]; with and without CRF, FIG. 32D): trend for sAPPα to be higher
- p-tau ([6]; FIG. 39E): decreased
- tau ([6]; FIG. 39E): decreased
- p-tau/tau ratio ([6]; FIG. 39F as printed, due to the tau decrease): unchanged

Structure (SMILES): CCC(COC)n1nnc2c(N(C)c3ccc(OC)cc3C)nc(C)nc21 (centres unmarked) [J30]
- total tau levels [2, 10]: lowered

Structure (SMILES): CCC(COC)N(C)c1nc(C)nc2c1nnn2-c1c(C)cc(C)cc1C (centres unmarked) [J32]
- brain/plasma ratio after SQ injection ([1]; 10 mg/kg SQ): 0.75
- time of peak levels after SQ injection ([1]; 10 mg/kg SQ): 1 h
- clearance from brain after IP injection [1, 11]: cleared out slowly over 8 hours
- time of peak brain levels after IP injection [1, 11]: 2 h
- levels after oral delivery compared with injection ([1]; 10 mg/kg oral): much lower
- p-tau/tau ratio ([2]; 1p M of J32 in SH-SY5Y cells, compared to J03 and a control, FIG. 33C): significant decrease
- p-tau/tau ratio [2, 10]: significantly lowered
